This is an account of results in USRE43371E1, “Use of selected cyclosporins for the treatment of hepatitis C infection” (priority 2004, dated 2012).

Converted amounts (≈) assume the structure as drawn. Bounds are passed on as bounds.

In data set [1] the test system is HCV replicon (genotype 1 b) in Huh 5-2 cells. As to the method:
(§1) Assays used Huh 5-2 cells that contained a bicistronic RNA encoding a firefly luciferase-ubiquitin-neomycin phosphotransferase fusion protein and HCV proteins NS3-5. The viral sequences originated from an HCV virus of genotype 1 b. Cells were cultured in RPMI 1640 medium (Gibco) supplemented with 10% fetal calf serum, 2 mM glutamine (Life Technologies), 1× non-essential amino acids (Life Technologies), 100 u/ml penicillin, 100 μg/ml streptomycin and 250 μg/ml G418 (Geneticin, Life Technologies) at 37° C. and 5% CO2. For antiviral (replication) assays, cells were seeded at a density of 7000 cells/well in 96-well View Plates™ (Packard) in the same medium except for G418. After a 24-h incubation, medium was removed, serial dilutions of test compounds in medium were added, and cells were incubated for an additional 72 h.
Antiviral effects were estimated either by luciferase assay or quantitative RT-PCR. To carry out luciferase assays, medium was removed, and cells were washed with PBS. Subsequent to lysis in 50 μl of Glo-lysis buffer (Promega) for 15 min, 50 μl of Stead-Glo Luciferase Assay Reagent (Promega) were added to cell lysates. Luciferase activity was measured using a luminometer, and the signal from each test well was expressed as a percentage of the signal measured in wells of cultures not exposed to a test compound. […]

In data set [2] the test system is HCV replicon-containing MH-14 cells. Conditions: cited from earlier work; for HCV RNA accumulation was inhibited: Northern blot and quantitative RT-PCR.
The test system of data set [3] is HCV replicon (genotype 1 b) in Huh 5-2 cells. Conditions: EC50 derived from RNA titers by quantitative RT-PCR; asterisk = lower of two independently determined values. As to the method: as §1
Results from these experiments permitted calculation of EC50 for the different cyclosporins, which is the effective concentration required to inhibit HCV replicon replication by 50%, and of CC50, which is the concentration required that inhibits the proliferation of exponentially growing cells by 50%, and a selectivity index SI, which is the ratio between CC50 and EC50.

In data set [4] the target is T1, human recombinant cyclophilin A (Homo sapiens, UniProt P62937).
T1 construct: purchased Sigma
T1 sequence (P62937 whole entry): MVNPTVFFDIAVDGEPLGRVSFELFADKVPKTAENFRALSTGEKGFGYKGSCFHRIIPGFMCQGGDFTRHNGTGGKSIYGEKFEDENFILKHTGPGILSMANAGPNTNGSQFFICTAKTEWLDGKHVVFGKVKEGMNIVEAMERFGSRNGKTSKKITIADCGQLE
Briefly: PPIase activity of cyclophilin A, tight binding inhibitor analysis. The settings on record: for k: rate constant for the rate limiting reaction; for Et: total enzyme concentration from tight binding fit. It counts as biochemical. As to the method:
Commercial human recombinant cyclophilin A (Sigma) was used in the assays. PPlase activity of cyclophilins was determined using a chymotrypsin-coupled spectrophotometric assay according to Garcia-Echverria et al. (BBRC, 191, (1993), 70-75). This method is based on the high trans selectivity of chymotrypsin for peptides of the type N-succinyl-ala-ala-pro-phe-p-nitroanilide. The peptides cleavage liberated the para-nitroaniline moiety that could be detected and quantitated at 390 nm. The hydrolysis of the cis form was limited by the rate of cis-trans isomerisation carried out by cyclophilin A. The peptide was made up in a solution of […] LiCl in 2,2,2-trifluoroethanol at 470 mM to enhance the cis conformer peptides population. The assay was performed on the split beam spectrophotometer and the water bath was set at 5° C. Cyclophilin A (7500 pmol/mg total enzyme concentration; Sigma) were dissolved at 20 nM in a buffer (35 mM HEPES and 0.26 mg/ml chymotrypsin (specific activity 50 units/mg), pH 7.8 with KOH) and were incubated for 6 minutes at room temperature followed by 54 minutes in the water bath. […] Then 3.5 ml of the incubated cyclophilin was added to the sample cuvette. […] Peptide was added at 25 μM to initiate the reaction and the change in absorbance was monitored at 10 data points per second. As a control, rates were also determined for a parallel reaction that lacked cyclophilin. These blank rates of peptide hydrolysis (i.e. in the absence of cyclophilin) were subtracted from rates in the presence of cyclophilin A.
The initial rates obtained from the PPlase assays were analysed by first order regression analysis by using first order transformation of the traces of the time course of the change in the absorbance at 390 nm. Total enzyme concentration (Et), the inhibitor dissociation constant (Ki) and the rate constant for the rate limiting reaction was calculated with the software FigSyS (2003, Biosoft) by fitting the data obtained from the regression analysis in the tight binding inhibitor multiprotein equation.
Once Et, Ki and k were calculated by the computer for a given set of data, a graphic representation of the data was plotted and the line fitted to the points assuming tight inhibitor binding to a single protein, defined by the following equations: v=K*Et*P−K(B−sqrt(B*B−4*C))/2 where B=Et*P+I+Ki and C=Et*P*I.

In a further data set the test system is CD4+ PBMCs. The data set can be described thus: Mixed lymphocyte reaction, proliferative response of CD4+ PBMCs. It counts as cell-based. Conditions: for % Stimulation (relative): cyclosporin 1 μg/ml, five days, [3H]-thymidine incorporation; for immunosuppressive activity (interpretation of Table 2): mixed lymphocyte reaction, 1 μg/ml. As to the method: In this assay, cyclosporins were dissolved in ethanol (10 mg/ml). Freshly isolated CD4^+ PBMCs from two healthy donors were mixed subsequent to inactivation by irradiation of one of the populations (stimulator cells; S). […] R) was determined by [^3H]-thymidine incorporation. The assay was conducted reciprocally with the two cell populations, each being inactivated and stimulated in turn. Stimulation (%) of responder cells was calculated by the formula: […] Sample refers to a mixture of stimulator and responder cells. Background represents a control in which only stimulator cells are mixed.
A general note: Uptake of a labelled nucleoside into DNA is a usual measure of proliferation.

Data set [5] has as its system Jc1-Luc recombinant virus (HCV strains J6/JFH1) in Huh-7-Lunet and Huh-7.5 cells. Briefly: Luciferase assay in hepatoma cells infected with Jc1-Luc recombinant HCV. Type of data set: cell-based, hepatitis C virus (HCV). The settings on record: Huh-7-Lunet and Huh-7.5 cells infected with Jc1-Luc; for antiviral activity: 72 hours (FIGS. 1 and 2). The text has this:
The method used hepatoma cells that had been infected with an infectious full length cheieric HCV construct or the same virus that was modified to carry a luciferase […] gene.
Infectious HCV viruses of full-length chimeric genome between HCV strains J6 and JFH1 (Jc1) were used to inoculate the hepatoma cells of the assays. The construct of Jc1 virus was also modified to obtain a bicistronic genome carrying a luciferase reporter gene (Jc1-Luc). Twenty-four and ninety-six hours after the transfection of RNA transcripts of the genomes by electroporation of Huh-7.5 cells, cell culture supernatant was collected. Supernatants were filtered ([…]) and cell culture infectious dose 50 (CCID50) per ml were determined by the limiting dilution assays according to Lindenbach et al. (Science, 309, (2005), 623-626). The CCID50 were 1.3×105 for Jc1 and 4.2×103 for Jc1-Luc.
Assays used either Huh-7-Lunet or Huh-7.5 cells (Lohmann et al., Science 285(5424), (1999), 110-113). Cells were grown in Dulbecco's modified Eagle's Medium (DMEM; Gibco) supplemented with 10% heat-inactivated fetal bovine serum (FCS) (Integro), 1× non-essential amino acids (Gibco), 100 IU/ml penicillin (Gibco), 100 μg/ml streptomycin (Gibco) or 25 μg/ml hygromycin (Gibco) for Huh-mono cells at 37° C. and 5% CO2. For antiviral (replication) assays, Huh-7-Lunet and Huh-7.5 cells were seeded at a density of 2×104 or 4×10^4 cells per well of a 12-well plate. Twenty four hours later, the medium was replaced by 0.5 ml of the Jc1-Luc virus stock (12-well plates) or 0.25 ml of the Jc1 virus stock (12-well plates).
The inhibition of viral replication were estimated by luciferase assay. To carry out luciferase assay, cells were harvested, washed with PBS and lysed in luciferase lysis buffer (1% Triton X-100, 25 mM glycylglycine, 15 mM MgSO4, 4 mM EGTA, and 1 mM DTT). Firefly luciferase activity was measured according to Krieger et al. (J Virol, 75(10), (2001), 4614-4624). […] Finally, luminescence was measured by using a Lumat LB9507 luminometer (Berthold) for 20 samples.

The nature of data set [6]: Initial phase I clinical studies, safety of oral doses. Type of data set: in vivo. As to the method:
Initial phase I clinical studies were carried out to assess the safety of oral doses of [D-MeAla]^3-[EtVal]^4-CsA, and to determine the pharmacokinetic profile and safety profile of the drug substance. […] These side effects were not dose-related.

The next data set deals with T2, cyclophilin (Homo sapiens, UniProt P62937).
T2 construct: purchased Sigma
T2 sequence (P62937 whole entry): as above
The data set can be described thus: Peptidyl-prolyl cis-trans isomerase (PPIase) activity of cyclophilin, chymotrypsin-coupled Suc-AAPF-pNA assay. Type of data set: biochemical. The settings on record: compared with substitution in position 4 only.

Data set [7] relates to HCV replicon in Huh-9-13 cells. Briefly: HCV replicon clearance and rebound in Huh-9-13 cells. It counts as cell-based, hepatitis C virus (HCV). Conditions: after 7 consecutive passages at 0.5 or 1 μg/ml; G418 1000 μg/ml for 2 passages (FIG. 3). (In general: Replicon systems follow genome replication, usually without infectious particles.)
Experimental: Assays used Huh-9-13 cells, human hepatoma cells (Huh-7) (Lohmann et al., Science 285(5424), (1999), 110-113) Cells were grown in the usual complete medium DMEM without G418 pressure.
RT-PCR were performed on extracts of viral RNA of samples taken at different passage points. The forward and reverse primers used were 5′-[sequence]-3′ and 5′-[sequence]-3′, respectively. The fluorogenic probe was 5′-[sequence]-3′. As an internal control, a plasmid containing part of the neomycin phosphotransferase gene sequence was used. Results were analysed and expressed as a quantity of replicon RNA (ng) per 1′000 cells and used to draft a graph.

As for `C/C=C/C[C@@H](C)[C@@H](O)[C@H]1C(=O)N[C@@H](CC)C(=O)N(C)CC(=O)N(C)[C@@H]([C@@H](C)CC)C(=O)N[C@@H](C(C)C)C(=O)N(C)[C@@H](CC(C)C)C(=O)N[C@@H](C)C(=O)N[C@H](C)C(=O)N(C)[C@@H](CC(C)C)C(=O)N(C)[C@@H](CC(C)C)C(=O)N(C)[C@@H](C(C)C)C(=O)N1C` [[MeIle]^4-CsA], the “EC50 +/− Std. Dev.” value in data set [1] (luciferase assay, 72 h) is 0.22 µg/mL (≈ 0.183 µM). The Selectivity index in [1] (ratio between CC50 (MTT) and EC50 (luciferase)) is given as 64. The “effectiveness in reducing HCV RNA titer relative to CsA” value in data set [2] (MH-14 cells) was “about equally as effective as CsA”. Further, the SI values in data set [3] was found to be 73. The k in data set [4] was determined as 0.17 ± 0.0068 s − 1. Besides, the Et in data set [4] is 7500 pmol/mg. Also, the “% Stimulation (relative)” value in the data set with CD4+ PBMCs (co-culture R1 × S2) was 84%; in the data set on CD4+ PBMCs (co-culture R2 × S1), 75%. In addition, the “immunosuppressive activity (interpretation of Table 2)” value in the data set with CD4+ PBMCs is “essentially devoid of immunosuppressive activity”.
Cyclosporin A [CsA]: the “reduction of HCV RNA titer” value in data set [2] (7-day exposure, 1 μg/ml) is “about 200 fold”. For the same compound, in data set [2] (MH-14 cells), the “HCV RNA accumulation was inhibited” value is “inhibited”. Also, in data set [4], the k is on record as 0.17 ± 0.0069 s − 1 and the Et was 7500 pmol/mg. In addition, in data set [5], the “higher concentration needed for the same replication inhibiting effect as [D-MeAla]3-[EtVal]4-CsA” value worked out at 10 fold and the antiviral activity entry is on record as “dose-dependent antiviral activity”.
Regarding `C/C=C/C[C@@H](C)C(=O)[C@H]1C(=O)N[C@@H](C(C)C)C(=O)N(C)CC(=O)N(C)[C@@H](CC(C)C)C(=O)N[C@@H](C(C)C)C(=O)N(C)[C@@H](CC(C)C)C(=O)N[C@@H](C)C(=O)N[C@H](C)C(=O)N(C)[C@@H](CC(C)C)C(=O)N(C)[C@@H](CC(C)C)C(=O)N(C)[C@@H](C(C)C)C(=O)N1C` [PSC 833], the “HCV RNA accumulation was inhibited” value in data set [2] (MH-14 cells) is recorded as “not”.
As to `C/C=C/C[C@@H](C)[C@@H](O)[C@H]1C(=O)N[C@@H](CC)C(=O)N(C)[C@H](C)C(=O)N(CC)[C@@H](C(C)C)C(=O)N[C@@H](C(C)C)C(=O)N(C)[C@@H](CC(C)C)C(=O)N[C@@H](C)C(=O)N[C@H](C)C(=O)N(C)[C@@H](CC(C)C)C(=O)N(C)[C@@H](CC(C)C)C(=O)N(C)[C@@H](C(C)C)C(=O)N1C` [[D-MeAla]^3-[EtVal]^4-CsA], the “tolerability of oral doses” value in data set [6] (doses of 50 to 1600 mg in a micro-emulsion in water) was “well tolerated”. Besides, in data set [6] (oral doses 50 to 1600 mg, not dose-related), the side effects result was “Mild and short-lived side effects were observed including nausea, vomiting, abdominal pain, mild headaches”. On cyclophilin, the “further increase in cyclophilin binding activity by substitution in position 3” value is no less than 2 fold. The “higher affinity for cyclophilin compared to [MeIle]4-CsA” value in [4] (cyclophilin A) is roughly 6 fold. Besides, in [4], the k is 0.16 ± 0.0074 s − 1 and the Et amounted to 7500 pmol/mg. The “outcome of cultures in the presence of G418 (rebound phase)” value in [7] was “the cultures died”. For the same compound, the antiviral activity entry in data set [5] is given as “dose-dependent antiviral activity”. The “immunosuppressive activity (interpretation of Table 2)” value in the data set with CD4+ PBMCs is “essentially devoid of immunosuppressive activity”.
